Experimental data published in PubChem BioAssay AID1918945 (Molecular Pharmacology Branch, DTP, NCI, 2023).
“And” between values parts separate entries of the source, which are not always exact repeats. Identical values can stand only once.

Tested on: 883617-216-R-J1-PDC complex spheroid viability
Assay: Anticancer human tumor 883617-216-R-J1-PDC patient-derived bladder carcinoma cell line growth inhibition
Conditions: for viability, T/C: stronger effect = lower value; active = viability on the fitted dose curve at most 10% of control; inactive = the rest
Outline: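 Complex spheroids of tumor cells with HUVEC and human MSCs, exposed to iadademstat combined with other agents. Each agent tested in half-log steps from near clinical Cmax (else 10 microM top), DMSO ≤0.25%.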

[1] = curve of first compound, second compound 0.1 µM
[2] = curve of first compound, second compound 0.316 µM
[3] = curve of first compound, second compound 1 µM
[4] = curve of first compound, second compound 3.16 µM
[5] = curve of first compound, second compound 10 µM
[6] = second compound 0.1 µM, first compound 0.0316 µM
[7] = second compound 0.1 µM, first compound 0.1 µM
[8] = second compound 0.1 µM, first compound 0.316 µM
[9] = second compound 0.1 µM, first compound 1 µM
[10] = second compound 0.316 µM, first compound 0.0316 µM
[11] = second compound 0.316 µM, first compound 0.1 µM
[12] = second compound 0.316 µM, first compound 0.316 µM
[13] = second compound 0.316 µM, first compound 1 µM
[14] = second compound 1 µM, first compound 0.0316 µM
[15] = second compound 1 µM, first compound 0.1 µM
[16] = second compound 1 µM, first compound 0.316 µM
[17] = second compound 1 µM, first compound 1 µM
[18] = second compound 3.16 µM, first compound 0.0316 µM
[19] = second compound 3.16 µM, first compound 0.1 µM
[20] = second compound 3.16 µM, first compound 0.316 µM
[21] = second compound 3.16 µM, first compound 1 µM
[22] = second compound 10 µM, first compound 0.0316 µM
[23] = second compound 10 µM, first compound 0.1 µM
[24] = second compound 10 µM, first compound 0.316 µM
[25] = second compound 10 µM, first compound 1 µM
[26] = second compound 0.1 µM, first compound 0.00949 µM
[27] = second compound 0.1 µM, first compound 0.03 µM
[28] = second compound 0.1 µM, first compound 0.0949 µM
[29] = second compound 0.1 µM, first compound 0.3 µM
[30] = second compound 0.1 µM, first compound 0.949 µM
[31] = second compound 0.1 µM, first compound 3 µM
[32] = second compound 0.316 µM, first compound 0.00949 µM
[33] = second compound 0.316 µM, first compound 0.03 µM
[34] = second compound 0.316 µM, first compound 0.0949 µM
[35] = second compound 0.316 µM, first compound 0.3 µM
[36] = second compound 0.316 µM, first compound 0.949 µM
[37] = second compound 0.316 µM, first compound 3 µM
[38] = second compound 1 µM, first compound 0.00949 µM
[39] = second compound 1 µM, first compound 0.03 µM
[40] = second compound 1 µM, first compound 0.0949 µM
[41] = second compound 1 µM, first compound 0.3 µM
[42] = second compound 1 µM, first compound 0.949 µM
[43] = second compound 1 µM, first compound 3 µM
[44] = second compound 3.16 µM, first compound 0.00949 µM
[45] = second compound 3.16 µM, first compound 0.03 µM
[46] = second compound 3.16 µM, first compound 0.0949 µM
[47] = second compound 3.16 µM, first compound 0.3 µM
[48] = second compound 3.16 µM, first compound 0.949 µM
[49] = second compound 3.16 µM, first compound 3 µM
[50] = second compound 10 µM, first compound 0.00949 µM
[51] = second compound 10 µM, first compound 0.03 µM
[52] = second compound 10 µM, first compound 0.0949 µM
[53] = second compound 10 µM, first compound 0.3 µM
[54] = second compound 10 µM, first compound 0.949 µM
[55] = second compound 10 µM, first compound 3 µM
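Note: exposure lasted seven days after three days of spheroid growth.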
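Throughout, for viability, T/C: 100% = DMSO vehicle control luminescence.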

O=C(C=Cn1cnc(-c2cc(C(F)(F)F)cc(C(F)(F)F)c2)n1)NNc1cnccn1 + NC1CC1c1ccc(-c2cccc(O)c2)cc1
6.13 nM: IC50 [1]
4.37 nM: IC50 [5]
5.05 nM: IC50 [4]
5.37 nM: IC50 [2]
5.18 nM: IC50 [3]
inactive: viability, T/C (second compound 0.1 µM, first compound 0.00316 µM) 76.8% | viability, T/C (second compound 0.1 µM, first compound 0.01 µM) 28.8% | viability, T/C [6] 23.8% | viability, T/C [7] 17.6% | viability, T/C [8] 15.6% | viability, T/C [9] 15.6% | viability, T/C (second compound 0.316 µM, first compound 0.00316 µM) 65.9% | viability, T/C (second compound 0.316 µM, first compound 0.01 µM) 31.3% | viability, T/C [10] 19.1% | viability, T/C [11] 14.8% | viability, T/C [12] 16% | viability, T/C [13] 14.3% | viability, T/C (second compound 1 µM, first compound 0.00316 µM) 66.5% | viability, T/C (second compound 1 µM, first compound 0.01 µM) 28.1% | viability, T/C [14] 18.4% | viability, T/C [15] 15.9% | viability, T/C [16] 16.3% | viability, T/C [17] 15.5% | viability, T/C (second compound 3.16 µM, first compound 0.00316 µM) 65.1% | viability, T/C (second compound 3.16 µM, first compound 0.01 µM) 28.1% | viability, T/C [18] 17.5% | viability, T/C [19] 16% | viability, T/C [20] 14.6% | viability, T/C [21] 14.3% | viability, T/C (second compound 10 µM, first compound 0.00316 µM) 60% | viability, T/C (second compound 10 µM, first compound 0.01 µM) 24.8% | viability, T/C [22] 18.2% | viability, T/C [23] 15.1% | viability, T/C [24] 15.4% | viability, T/C [25] 15.8%

COc1cc(C2c3cc4c(cc3C(OC3OC5COC(C)OC5C(O)C3O)C3COC(=O)C23)OCO4)cc(OC)c1O (configuration not stated) + NC1CCC(NC2CC2c2ccccc2)CC1
377 nM: IC50 [1]
inactive: viability, T/C [26] 96.9% | viability, T/C [27] 94.1% | viability, T/C [28] 72.5% | viability, T/C [29] 51.6% | viability, T/C [30] 45.8% | viability, T/C [31] 38.3% | viability, T/C [32] 101% | viability, T/C [33] 94% | viability, T/C [34] 80.1% | viability, T/C [35] 51.4% | viability, T/C [36] 54% | viability, T/C [37] 43.4% | viability, T/C [38] 104% | viability, T/C [39] 83% | viability, T/C [40] 67.3% | viability, T/C [41] 56.2% | viability, T/C [42] 49.2% | viability, T/C [43] 44.6% | viability, T/C [44] 106% | viability, T/C [45] 95.5% | viability, T/C [46] 70.9% | viability, T/C [47] 53.2% | viability, T/C [48] 51.8% | viability, T/C [49] 41.8% | viability, T/C [50] 122% | viability, T/C [51] 99.8% | viability, T/C [52] 75.4% | viability, T/C [53] 60.2% | viability, T/C [54] 56.4% | viability, T/C [55] 45.6%
830 nM: IC50 [3]
645 nM: IC50 [2]
587 nM: IC50 [4]
1750 nM: IC50 [5]

CCc1c2c(nc3ccc(O)cc13)-c1cc3c(c(=O)n1C2)COC(=O)[C@]3(O)CC + NC1CCC(NC2CC2c2ccccc2)CC1
inactive: viability, T/C (second compound 0.1 µM, first compound 0.000949 µM) 34.6% | viability, T/C (second compound 0.1 µM, first compound 0.003 µM) 27.8% | viability, T/C [26] 24.9% | viability, T/C [27] 24.2% | viability, T/C [28] 5.01% | viability, T/C (second compound 0.316 µM, first compound 0.000949 µM) 35.5% | viability, T/C (second compound 0.316 µM, first compound 0.003 µM) 28.4% | viability, T/C [32] 25% | viability, T/C [33] 22.8% | viability, T/C (second compound 1 µM, first compound 0.000949 µM) 36.2% | viability, T/C (second compound 1 µM, first compound 0.003 µM) 24.4% | viability, T/C [38] 26.4% | viability, T/C [39] 23.7% | viability, T/C (second compound 3.16 µM, first compound 0.000949 µM) 31.6% | viability, T/C (second compound 3.16 µM, first compound 0.003 µM) 25.7% | viability, T/C [44] 26.7% | viability, T/C [45] 23.6% | viability, T/C [46] 5.29% | viability, T/C (second compound 10 µM, first compound 0.000949 µM) 30.6% | viability, T/C (second compound 10 µM, first compound 0.003 µM) 25.7% | viability, T/C [50] 25.2% | viability, T/C [51] 25.6%
< 0.949 nM: IC50 [1] | IC50 [2] | IC50 [3] | IC50 [4] | IC50 [5]
active: viability, T/C [29] 2.12% | viability, T/C [34] 3.48% | viability, T/C [35] 0.41% | viability, T/C [40] 4.59% | viability, T/C [41] 0.62% | viability, T/C [47] 1.43% | viability, T/C [52] 3.82% | viability, T/C [53] 0.29%

CC[C@@]1(O)C(=O)OCc2c1cc1n(c2=O)Cc2cc3c(CN(C)C)c(O)ccc3nc2-1
inactive: viability, T/C (compound 0.000316 µM) 95.7% and 78.2% | viability, T/C (compound 0.001 µM) 78.1% and 65.8% | viability, T/C (compound 0.00316 µM) 60.2% and 37.7% | viability, T/C (compound 0.01 µM) 38.6% and 29.1% | viability, T/C (compound 0.0316 µM) 39.1% and 27.6% | viability, T/C (compound 0.1 µM) 27.7% and 20%
5.86 nM and 1.95 nM: IC50 (curve of compound)

CC1COCCN1c1cc(C2(S(C)(=N)=O)CC2)nc(-c2ccnc3[nH]ccc23)n1 (configuration not stated) + NC1CC1c1ccc(-c2cccc(O)c2)cc1
435 nM: IC50 [2]
501 nM: IC50 [3]
357 nM: IC50 [1]
259 nM: IC50 [4]
152 nM: IC50 [5]
inactive: viability, T/C [6] 97.8% | viability, T/C [7] 78.5% | viability, T/C [8] 51.9% | viability, T/C [9] 35% | viability, T/C (second compound 0.1 µM, first compound 3.16 µM) 28.9% | viability, T/C (second compound 0.1 µM, first compound 10 µM) 27.7% | viability, T/C [10] 112% | viability, T/C [11] 76.6% | viability, T/C [12] 55% | viability, T/C [13] 38.2% | viability, T/C (second compound 0.316 µM, first compound 3.16 µM) 31.8% | viability, T/C (second compound 0.316 µM, first compound 10 µM) 25.2% | viability, T/C [14] 101% | viability, T/C [15] 77.4% | viability, T/C [16] 55.3% | viability, T/C [17] 41.5% | viability, T/C (second compound 1 µM, first compound 3.16 µM) 29.1% | viability, T/C (second compound 1 µM, first compound 10 µM) 22.4% | viability, T/C [18] 88.5% | viability, T/C [19] 65.3% | viability, T/C [20] 46.1% | viability, T/C [21] 35% | viability, T/C (second compound 3.16 µM, first compound 3.16 µM) 31.5% | viability, T/C (second compound 3.16 µM, first compound 10 µM) 24.6% | viability, T/C [22] 81% | viability, T/C [23] 58.4% | viability, T/C [24] 34.6% | viability, T/C [25] 29.3% | viability, T/C (second compound 10 µM, first compound 3.16 µM) 25.8% | viability, T/C (second compound 10 µM, first compound 10 µM) 22.8%

Nc1ccccc1NC(=O)c1ccc(CNC(=O)OCc2cccnc2)cc1 + NC1CC1c1ccc(-c2cccc(O)c2)cc1
103 nM: IC50 [5]
146 nM: IC50 [4]
active: viability, T/C [31] 0.5% | viability, T/C [37] 0.25% | viability, T/C [43] 0.26% | viability, T/C [49] 0.25% | viability, T/C [55] 0.23%
181 nM: IC50 [2]
176 nM: IC50 [3]
inactive: viability, T/C [26] 103% | viability, T/C [27] 106% | viability, T/C [28] 64.8% | viability, T/C [29] 36.2% | viability, T/C [30] 19.2% | viability, T/C [32] 110% | viability, T/C [33] 96% | viability, T/C [34] 64.8% | viability, T/C [35] 36.9% | viability, T/C [36] 15.8% | viability, T/C [38] 116% | viability, T/C [39] 96.6% | viability, T/C [40] 62.7% | viability, T/C [41] 39.1% | viability, T/C [42] 12.6% | viability, T/C [44] 115% | viability, T/C [45] 91.2% | viability, T/C [46] 57.3% | viability, T/C [47] 35.6% | viability, T/C [48] 11.9% | viability, T/C [50] 91.5% | viability, T/C [51] 80.7% | viability, T/C [52] 43.5% | viability, T/C [53] 33.9% | viability, T/C [54] 13.6%
190 nM: IC50 [1]
